This is an account of results in patent US20100331305A1, “OXO-HETEROCYCLE FUSED PYRIMIDINE COMPOUNDS, COMPOSITIONS AND METHODS OF USE” (Genentech, Inc., priority 2009, published 2010).

The assay deals with mTOR enzyme (mTOR(1360-2549)+GBL) (Homo sapiens, UniProt P42345). The assay can be described thus: In vitro mTOR kinase assay (TR-FRET). In kind it is biochemical. The note with it: 0.25 nM mTOR+GBL, 8 uM ATP; values tied to compounds by order of Table 1; 'x or y' = two alternative values for separated diastereomers of unassigned stereochemistry; read-out: activity level (Ki) in the mTOR kinase assay. An excerpt: a. In Vitro mTOR Kinase Assay
The reaction is stopped by an addition of a Terbium-labeled phospho-specific antibody, e.g., Tb-labeled anti-p4E-BP1 T37/T46, (Invitrogen, product #PR8835A), EDTA, and TR-FRET buffer solution (Invitrogen, Product #PR3756B). Product formation is detected by way of time-resolved fluorescence resonance energy transfer (TR-FRET), which occurs when the phosphorylated substrate and labeled antibody are in close proximity due to phospho-specific binding. Enzymatic activity is measured as an increase in TR-FRET signal using a Perkin Elmer Envision plate reader.
Compound activity is tested in 10 point dose curves starting at the highest final concentration of 10 uM. They are serially diluted in 100% DMSO prior to further dilution with assay buffer. […] 8 μL of solution containing 2 nM Tb-anti-p4E-BP1 antibody & 10 mM EDTA diluted TR-FRET buffer is then added and incubated for 30 minutes to stop the reaction. The plate is scanned with the Envision plate reader. Ki values are calculated in Assay Explorer using the Morrison ATP-competitive tight binding equation for Ki apparent determination.
On the technique in general: In TR-FRET formats the signal depends on donor and acceptor labels being close together.

Several values for one entry are separate records, joined by “and”; a condition that tells them apart may be missing. Identical values can stand only once.

A word on the Ki: it is the dissociation constant of the complex between target and ligand, obtained from inhibition or displacement.

Sequence of mTOR enzyme (mTOR(1360-2549)+GBL) (P42345 1360-2549, species assumed): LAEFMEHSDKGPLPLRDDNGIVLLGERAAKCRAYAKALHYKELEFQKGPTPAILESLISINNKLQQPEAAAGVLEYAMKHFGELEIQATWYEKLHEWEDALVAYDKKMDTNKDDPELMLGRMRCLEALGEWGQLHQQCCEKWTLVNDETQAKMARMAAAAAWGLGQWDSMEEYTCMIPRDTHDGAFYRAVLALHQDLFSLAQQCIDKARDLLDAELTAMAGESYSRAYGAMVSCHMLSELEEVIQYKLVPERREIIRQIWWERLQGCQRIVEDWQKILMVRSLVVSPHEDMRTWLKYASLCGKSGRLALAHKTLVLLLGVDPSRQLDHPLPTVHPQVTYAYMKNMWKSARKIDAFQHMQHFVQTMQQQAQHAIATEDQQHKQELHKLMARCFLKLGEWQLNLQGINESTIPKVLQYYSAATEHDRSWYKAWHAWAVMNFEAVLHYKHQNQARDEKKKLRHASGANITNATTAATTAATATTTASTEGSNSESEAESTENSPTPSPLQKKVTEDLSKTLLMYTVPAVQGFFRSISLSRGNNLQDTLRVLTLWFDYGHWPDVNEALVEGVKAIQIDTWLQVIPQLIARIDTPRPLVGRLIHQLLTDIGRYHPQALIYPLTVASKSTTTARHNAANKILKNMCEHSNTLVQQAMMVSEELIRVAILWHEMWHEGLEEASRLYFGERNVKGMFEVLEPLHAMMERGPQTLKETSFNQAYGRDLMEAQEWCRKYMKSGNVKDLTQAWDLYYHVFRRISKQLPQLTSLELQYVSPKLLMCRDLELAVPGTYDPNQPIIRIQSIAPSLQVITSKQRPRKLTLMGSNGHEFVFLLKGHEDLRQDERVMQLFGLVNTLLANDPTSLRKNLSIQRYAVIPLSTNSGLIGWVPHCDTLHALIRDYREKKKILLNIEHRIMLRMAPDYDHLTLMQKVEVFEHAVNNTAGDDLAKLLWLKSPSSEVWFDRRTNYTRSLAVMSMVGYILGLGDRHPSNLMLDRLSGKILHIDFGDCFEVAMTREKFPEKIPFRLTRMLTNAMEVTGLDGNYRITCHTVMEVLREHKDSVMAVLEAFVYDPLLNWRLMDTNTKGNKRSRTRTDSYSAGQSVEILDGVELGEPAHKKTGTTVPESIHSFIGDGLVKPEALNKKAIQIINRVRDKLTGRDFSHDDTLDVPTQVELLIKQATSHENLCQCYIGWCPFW
Sequence of mTOR enzyme (mTOR(1360-2549)+GBL) (Q9BVC4 whole entry partner, species assumed): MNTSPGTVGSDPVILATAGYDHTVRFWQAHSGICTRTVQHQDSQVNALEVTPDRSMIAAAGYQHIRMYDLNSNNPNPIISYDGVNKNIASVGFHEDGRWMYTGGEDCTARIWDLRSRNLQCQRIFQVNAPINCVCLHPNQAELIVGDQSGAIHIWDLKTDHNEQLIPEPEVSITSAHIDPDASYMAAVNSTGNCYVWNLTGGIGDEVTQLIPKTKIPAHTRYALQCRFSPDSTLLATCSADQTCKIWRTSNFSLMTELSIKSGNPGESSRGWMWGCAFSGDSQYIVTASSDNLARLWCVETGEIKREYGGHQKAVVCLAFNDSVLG

On to `CCNC(=O)Nc1ccc(-c2nc3c(c(N4CCOCC4C)n2)C2CCC(C3)O2)cc1` (single isomer, unassigned) [Example 62 do^2], for which the inhibition constant Ki was 0.006 µM and 0.002 µM. On to `CC1COCCN1c1nc(-c2ccc(NC(=O)NC3COC3)cc2)nc2c1C1CCC(C2)O1` (single isomer, unassigned) [Example 63 dp^2], for which the inhibition constant Ki is 0.01 µM and 0.002 µM.

As to `CCNC(=O)N(CC)C(=O)Nc1ccc(-c2nc3c(c(N4CCOCC4)n2)CCOC3)cc1` [Example 12, 1-ethyl-1-((ethylamino)carbonyl)-3-(4-(4-morpholino-6,8-dihydro-5H-pyrano[3,4-d]pyrimidin-2-yl)phenyl)urea], the Ki stood at 4.33 µM. As for `CCNC(=O)N(CC)C(=O)Nc1ccc(-c2nc3c(c(N4CCOC[C@@H]4C)n2)CCOC3)cc1` [Example 13 am, (S)-1-ethyl-1-((ethylamino)carbonyl)-3-(4-(4-(3-methylmorpholino)-6,8-dihydro-5H-pyrano[3,4-d]pyrimidin-2-yl)phenyl)urea], the figure is 1.18 µM; as for `C[C@H]1COCCN1c1nc(-c2ccc(S(C)(=O)=O)cc2)nc2c1COCC2` [Example 36, (S)-4-(3-methylmorpholino)-2-(4-(methylsulfonyl)phenyl)-7,8-dihydro-5H-pyrano[4,3-d]pyrimidine], 0.102 µM. Consider `CNS(=O)(=O)c1ccc(-c2nc3c(c(N4CCOC[C@@H]4C)n2)COCC3)cc1` [Example 37, (S)—N-methyl-4-(4-(3-methylmorpholino)-7,8-dihydro-5H-pyrano[4,3-d]pyrimidin-2-yl)benzenesulfonamide], for which the Ki worked out at 0.343 µM. As for `C[C@H]1COCCN1c1nc(-c2ccc(NS(C)(=O)=O)cc2)nc2c1COCC2` [Example 38, (S)—N-(4-(4-(3-methylmorpholino)-7,8-dihydro-5H-pyrano[4,3-d]pyrimidin-2-yl)phenyl)methanesulfonamide], the figure is 0.272 µM. Turning to `C[C@H]1COCCN1c1nc(-c2ccc(NS(=O)(=O)C3CC3)cc2)nc2c1COCC2` [Example 39, (S)—N-(4-(4-(3-methylmorpholino)-7,8-dihydro-5H-pyrano[4,3-d]pyrimidin-2-yl)phenyl)cyclopropanesulfonamide], the inhibition constant (Ki) is 0.27 µM. Turning to `CCS(=O)(=O)Nc1ccc(-c2nc3c(c(N4CCOC[C@@H]4C)n2)COCC3)cc1` [Example 40, (S)—N-(4-(4-(3-methylmorpholino)-7,8-dihydro-5H-pyrano[4,3-d]pyrimidin-2-yl)phenyl)ethanesulfonamide], the Ki was found to be 0.183 µM. For the compound `COC1CCN(c2nc(-c3ccc(NC(=O)NC4COC4)cc3)nc3c2CCC2(CC2)O3)CC1` [Example 46, 1-(4-(4′-(4-methoxypiperidin-1-yl)-5′,6′-dihydrospiro[cyclopropane-1,7′-pyrano[2,3-d]pyrimidine]-2′-yl)phenyl)-3-(oxetan-3-yl)urea], the inhibitory constant (Ki) was 0.62 µM.

`COC1CCN(c2nc(-c3ccc(NC(=O)Nc4ccn(C)n4)cc3)nc3c2CCC2(CC2)O3)CC1` [Example 47, 1-(4-(4′-(4-methoxypiperidin-1-yl)-5′,6′-dihydrospiro[cyclopropane-1,7′-pyrano[2,3-d]pyrimidine]-2′-yl)phenyl)-3-(1-methyl-1H-pyrazol-3-yl)urea]: the inhibitory constant (Ki) came out at 0.884 µM. `COC1CCN(c2nc(-c3ccc(Nc4nccc(=O)[nH]4)cc3)nc3c2CCC2(CC2)O3)CC1` [Example 48, 2-(4-(4′-(4-methoxypiperidin-1-yl)-5′,6′-dihydrospiro[cyclopropane-1,7′-pyrano[2,3-d]pyrimidine]-2′-yl)phenylamino)pyrimidin-4(3H)-one]: the inhibitory constant (Ki) stood at 0.392 µM. Take `Nc1nc2ccc(-c3nc4c(c(N5C[C@H]6CC[C@@H](C5)O6)n3)CCCO4)cc2[nH]1` [Example 61, 6-(4-((1R,5S)-8-oxa-3-azabicyclo[3.2.1]octan-3-yl)-6,7-dihydro-5H-pyrano[2,3-d]pyrimidin-2-yl)-1H-benzo[d]imidazol-2-amine]: the Ki was 0.012 µM. As for `C[C@H]1COCCN1c1nc(-c2ccc3nc(N)[nH]c3c2)nc2c1CCCO2` [Example 64, (S)-6-(4-(3-methylmorpholino)-6,7-dihydro-5H-pyrano[2,3-d]pyrimidin-2-yl)-1H-benzo[d]imidazol-2-amine], the Ki came to 0.122 µM. As for `CCNC(=O)Nc1ccc(-c2nc(N3CCOC[C@@H]3C)c3c(n2)[C@@](C)(CCN2CCOCC2)OC3)cc1` [Example 76 eo (R), 1-ethyl-3-(4-((R)-7-methyl-4-((S)-3-methylmorpholino)-7-(2-morpholinoethyl)-5,7-dihydrofuro[3,4-d]pyrimidin-2-yl)phenyl)urea], the figure is 0.015 µM. With `CCNC(=O)Nc1ccc(-c2nc(N3CCOC[C@@H]3C)c3c(n2)[C@@](C)(CCN2CCC2)OC3)cc1` [Example 79 er (R), 1-(4-((R)-7-(2-(azetidin-1-yl)ethyl)-7-methyl-4-((S)-3-methylmorpholino)-5,7-dihydrofuro[3,4-d]pyrimidin-2-yl)phenyl)-3-ethylurea], the inhibition constant Ki is 0.057 µM. In the case of `CCNC(=O)Nc1ccc(-c2nc3c(c(N4CCOC[C@@H]4C)n2)COC3=O)cc1` [Example 90, (S)-1-ethyl-3-(4-(4-(3-methylmorpholino)-7-oxo-5,7-dihydrofuro[3,4-d]pyrimidin-2-yl)phenyl)urea], the inhibition constant (Ki) came out at 0.076 µM. Consider `COCC[C@@]1(C)OCc2c(N3CCOC[C@@H]3C)nc(-c3cnc(N)nc3)nc21` [Example 101 go (R), 5-((R)-7-(2-methoxyethyl)-7-methyl-4-((S)-3-methylmorpholino)-5,7-dihydrofuro[3,4-d]pyrimidin-2-yl)pyrimidin-2-amine], for which the inhibition constant Ki came to 0.258 µM. Next, `COCC[C@]1(C)OCc2c(N3CCOC[C@@H]3C)nc(-c3cnc(N)nc3)nc21` [Example 101 go (S), 5-((S)-7-(2-methoxyethyl)-7-methyl-4-((S)-3-methylmorpholino)-5,7-dihydrofuro[3,4-d]pyrimidin-2-yl)pyrimidin-2-amine]: 0.393 µM. On to `C[C@H]1COCCN1c1nc(-c2cnc(N)nc2)nc2c1CO[C@]2(C)CCOc1ccccc1` [Example 104 gs (R), 5-((R)-7-methyl-4-((S)-3-methylmorpholino)-7-(2-phenoxyethyl)-5,7-dihydrofuro[3,4-d]pyrimidin-2-yl)pyrimidin-2-amine], for which the Ki was 0.297 µM.

Regarding `CC1(C)OCc2c(N3[C@@H]4CC[C@H]3COC4)nc(-c3cnc(N)nc3)nc21` [Example 106, 5-(4-((1R,5S)-3-oxa-8-azabicyclo[3.2.1]octan-8-yl)-7,7-dimethyl-5,7-dihydrofuro[3,4-d]pyrimidin-2-yl)pyrimidin-2-amine], the inhibition constant Ki is 0.01 µM.

With `COCC[C@]1(C)OCc2c(N3CCOC[C@@H]3C)nc(-c3ccc(N)nc3)nc21` [Example 111 hf^1], the inhibitory constant (Ki) is 0.101 µM and 0.03 µM. Next, `CC1(C)OCc2c(N3CCOCC3)nc(-c3ccc4nc(N)[nH]c4c3)nc21` [Example 118, 6-(7,7-dimethyl-4-morpholino-5,7-dihydrofuro[3,4-d]pyrimidin-2-yl)-1H-benzo[d]imidazol-2-amine]: 0.004 µM.

Consider `C[C@H]1COCCN1c1nc(-c2ccc3nc(N)[nH]c3c2)nc2c1COC2(C)C` [Example 122, (S)-6-(7,7-dimethyl-4-(3-methylmorpholino)-5,7-dihydrofuro[3,4-d]pyrimidin-2-yl)-1H-benzo[d]imidazol-2-amine], for which the Ki was 0.007 µM.
